Assay: Storage stability of dispersions of solid powderous agents in vehicles
Assay type: physicochemical
Conditions: as little as
Description: Depending on the chemical and physical nature of the solid and its particle size, a minimum amount of the solid is required to form the stable suspension of the invention. For a given substance of given physical and chemical nature as well of particle size, this minimum amount can be easily determined by experimentation, which is within the reach of a person skilled in the art. With some substances, such as hydrocortisone, stable suspensions are obtained by incorporating as little as 3% by weight of the substance into the fluid carrier. A preferred average particle size (with 50% or more of the particles being below average) is one of less than 550 μm or 250 μm, in particular of less than 100 μm or 20 μm, most preferred of less than 5 μm or 2 μm. The stabilizing effect of the particulate solid of the invention can also be obtained by a mixture of particulate substances, such as a particulate pharmacologically or cosmetically active agent, for instance hydrocortisone, and a particulate pharmaceutically or cosmetically acceptable excipient, such as microcrystalline cellulose. The powderous agents used are practically insoluble in the vehicles.

amount of substance incorporated into the fluid carrier at which stable suspensions are obtained: 3 % by weight
Compound: C[C@]12CCC(=O)C=C1CC[C@@H]1[C@@H]2[C@@H](O)C[C@@]2(C)[C@H]1CC[C@]2(O)C(=O)CO [hydrocortisone, Hydrocortisone]
